In brackets after ≈: the same amount, converted by molar mass.
Key:
[1] = test system: Human immunodeficiency virus 1; assay: Antiviral activity against HIV1 RES056 infected in human MT4 cells assessed as protection against virus-induced cytopathic effect incubated for 5 days by MTT assay; type: functional, organism-based; conditions: Human immunodeficiency virus 1, RES056, MT4, 120 h
[2] = test system: Human immunodeficiency virus 1; assay: Antiviral activity against HIV1 3B infected in human MT4 cells assessed as protection against virus-induced cytopathic effect incubated for 5 days by MTT assay; type: functional, organism-based; conditions: Human immunodeficiency virus 1, 3B, MT4, 120 h
MT4 = assay: Cytotoxicity against human MT4 cells assessed as reduction in cell viability incubated for 5 days by MTT assay; type: functional; conditions: MT4, 120 h
[3] = Selectivity index, ratio of CC50 for human MT4 cells to EC50 for antiviral activity against HIV1 3B infected in human MT4 cells
[4] = Selectivity index, ratio of CC50 for human MT4 cells to EC50 for antiviral activity against HIV1 RES056 infected in human MT4 cells
[5] = test system: Human immunodeficiency virus 1; assay: Antiviral activity against HIV1 expressing RT L100I mutant infected in human MT4 cells assessed as protection against virus-induced cytopathic effect incubated for 5 days by MTT assay; type: functional, organism-based; conditions: Human immunodeficiency virus 1, MT4, 120 h
[6] = test system: Human immunodeficiency virus 1; assay: Antiviral activity against HIV1 expressing RT K103N mutant infected in human MT4 cells assessed as protection against virus-induced cytopathic effect incubated for 5 days by MTT assay; type: functional, organism-based; conditions: Human immunodeficiency virus 1, MT4, 120 h
[7] = test system: Human immunodeficiency virus 1; assay: Antiviral activity against HIV1 expressing RT Y181C mutant infected in human MT4 cells assessed as protection against virus-induced cytopathic effect incubated for 5 days by MTT assay; type: functional, organism-based; conditions: Human immunodeficiency virus 1, MT4, 120 h
[8] = test system: Human immunodeficiency virus 1; assay: Antiviral activity against HIV1 expressing RT Y188L mutant infected in human MT4 cells assessed as protection against virus-induced cytopathic effect incubated for 5 days by MTT assay; type: functional, organism-based; conditions: Human immunodeficiency virus 1, MT4, 120 h
[9] = test system: Human immunodeficiency virus 1; assay: Antiviral activity against HIV1 expressing RT E138K mutant infected in human MT4 cells assessed as protection against virus-induced cytopathic effect incubated for 5 days by MTT assay; type: functional, organism-based; conditions: Human immunodeficiency virus 1, MT4, 120 h
[10] = test system: Human immunodeficiency virus 1; type: functional, organism-based; conditions: Human immunodeficiency virus 1, MT4, 120 h
[11] = test system: Human immunodeficiency virus 1; assay: (§1) Antiviral activity against HIV1 3B infected in human MT4 cells grown under 30 passages in absence of test compound assessed as protection against virus-induced cytopathic effect incubated for 5 days by MTT assay; type: functional, organism-based; conditions: Human immunodeficiency virus 1, 3B, MT4, 120 h
[12] = test system: Human immunodeficiency virus 1; assay: as §1, with “presence” for “absence”, “(E)-4-((4-((4-(4-(2-Cyanovinyl)-2,6-dimethylphenoxy)thieno[2,3- d]pyrimidin-2-yl)amino)piperidin-1-yl)methyl)benzenesulfonamide” for “test compound”; type: functional, organism-based; conditions: Human immunodeficiency virus 1, 3B, MT4, 120 h
[13] = test system: Human immunodeficiency virus 1; assay: as §1, with “presence” for “absence”, “4-[[4-[[4-(4-cyano-2,6-dimethylphenoxy)thieno[3,2-d]pyrimidin-2-yl]amino]-1-piperidyl]methyl]benzenesulfonamide” for “test compound”; type: functional, organism-based; conditions: Human immunodeficiency virus 1, 3B, MT4, 120 h
[14] = test system: Human immunodeficiency virus 1; assay: as §1, with “presence” for “absence”, “4-[[4-[[4-[4-[2-cyanovinyl]-2,6-dimethylphenoxy]thieno[3,2-d]pyrimidin-2-yl]amino]-1-piperidyl]methyl]benzenesulfonamide” for “test compound”; type: functional, organism-based; conditions: Human immunodeficiency virus 1, 3B, MT4, 120 h
[15] = test system: Human immunodeficiency virus 1; assay: Resistance index, ratio of EC50 for antiviral activity against HIV1 3B infected in human MT4 cells grown under 30 passages in presence of (E)-4-((4-((4-(4-(2-Cyanovinyl)-2,6-dimethylphenoxy)thieno[2,3- d]pyrimidin-2-yl)amino)piperidin-1-yl)methyl)benzenesulfonamide to EC50 for antiviral activity against HIV1 3B infected in human MT4 cells; type: functional
[16] = test system: Human immunodeficiency virus 1; assay: Resistance index, ratio of EC50 for antiviral activity against HIV1 3B infected in human MT4 cells grown under 30 passages in presence of 4-[[4-[[4-(4-cyano-2,6-dimethylphenoxy)thieno[3,2-d]pyrimidin-2-yl]amino]-1-piperidyl]methyl]benzenesulfonamide to EC50 for antiviral activity against HIV1 3B infected in human MT4 cells; type: functional
[17] = test system: Human immunodeficiency virus 1; assay: Resistance index, ratio of EC50 for antiviral activity against HIV1 3B infected in human MT4 cells grown under 30 passages in presence of 4-[[4-[[4-[4-[2-cyanovinyl]-2,6-dimethylphenoxy]thieno[3,2-d]pyrimidin-2-yl]amino]-1-piperidyl]methyl]benzenesulfonamide to EC50 for antiviral activity against HIV1 3B infected in human MT4 cells; type: functional
[18] = target: Human immunodeficiency virus type 1 reverse transcriptase (Human immunodeficiency virus 1, UniProt Q72547); assay: Inhibition of HIV1 RT in presence of reconstituted template and viral nucleotides [digoxigenin (DIG)-dUTP, biotin-dUTP and dTTP] incubated for 1 hr by ELISA method
[19] = target: Human immunodeficiency virus type 1 reverse transcriptase (Human immunodeficiency virus 1, UniProt Q72547, L100I); assay: Inhibition of HIV1 RT L100I mutant in presence of reconstituted template and viral nucleotides [digoxigenin (DIG)-dUTP, biotin-dUTP and dTTP] incubated for 1 hr by ELISA method
[20] = target: Human immunodeficiency virus type 1 reverse transcriptase (Human immunodeficiency virus 1, UniProt Q72547, K103N); assay: Inhibition of HIV1 RT K103N mutant in presence of reconstituted template and viral nucleotides [digoxigenin (DIG)-dUTP, biotin-dUTP and dTTP] incubated for 1 hr by ELISA method
[21] = target: Human immunodeficiency virus type 1 reverse transcriptase (Human immunodeficiency virus 1, UniProt Q72547, Y181C); assay: Inhibition of HIV1 RT Y181C mutant in presence of reconstituted template and viral nucleotides [digoxigenin (DIG)-dUTP, biotin-dUTP and dTTP] incubated for 1 hr by ELISA method
[22] = target: Human immunodeficiency virus type 1 reverse transcriptase (Human immunodeficiency virus 1, UniProt Q72547, Y188L); assay: Inhibition of HIV1 RT Y188L mutant in presence of reconstituted template and viral nucleotides [digoxigenin (DIG)-dUTP, biotin-dUTP and dTTP] incubated for 1 hr by ELISA method
[23] = target: Human immunodeficiency virus type 1 reverse transcriptase (Human immunodeficiency virus 1, UniProt Q72547, E138K); assay: Inhibition of HIV1 RT E138K mutant in presence of reconstituted template and viral nucleotides [digoxigenin (DIG)-dUTP, biotin-dUTP and dTTP] incubated for 1 hr by ELISA method
[24] = target: Human immunodeficiency virus type 1 reverse transcriptase (Human immunodeficiency virus 1, UniProt Q72547, K103N/Y181C); assay: Inhibition of HIV1 RT K103N/Y181C mutant in presence of reconstituted template and viral nucleotides [digoxigenin (DIG)-dUTP, biotin-dUTP and dTTP] incubated for 1 hr by ELISA method
[25] = Solubility of the compound in pH 7.4 buffer by HPLC analysis
[26] = Solubility of the compound in pH 7.0 buffer by HPLC analysis
[27] = Solubility of the compound in pH 2.0 buffer by HPLC analysis
[28] = Aqueous solubility of the compound in pH 7 buffer; type: physicochemical
[29] = Toxicity in Kunming mouse assessed as induction of toxic symptoms at 2000 mg/kg, ig measured 2 hrs post dose and then measured every 48 hrs for 14 days; type: organism-based; conditions: in vivo, po
[30] = Toxicity in Kunming mouse assessed as induction of mortality at 2000 mg/kg, ig measured 2 hrs post dose and then measured every 48 hrs for 14 days; type: organism-based; conditions: in vivo, po
[31] = Toxicity in Kunming mouse assessed as induction of abnormal behaviors at 2000 mg/kg, ig measured 2 hrs post dose and then measured every 48 hrs for 14 days; type: organism-based; conditions: in vivo, po
[32] = Toxicity in Kunming mouse assessed as induction of body weight changes at 2000 mg/kg, ig measured 2 hrs post dose and then measured every 48 hrs for 14 days; type: organism-based; conditions: in vivo, po

SMILES	EC50 [1] [nM]	EC50 [2] [nM]	CC50 (MT4) [nM]	selectivity ratio [3]	selectivity ratio [4]	EC50 [5] [nM]	EC50 [6] [nM]	EC50 [7] [nM]	EC50 [8] [nM]	EC50 [9] [nM]	EC50 [10] [nM]	EC50 [11] [nM]	EC50 [12] [nM]	EC50 [13] [nM]	EC50 [14] [nM]	further results
Cc1cc(/C=C/C#N)cc(C)c1Oc1nc(NC2CCN(Cc3cccc(C(N)=O)c3)CC2)nc2sccc12	62	5.73	3950	689	64	5.75	5.45	17.7	39.5	18.4	12.2	–	–	–	–	–
Cc1cn([C@H]2C[C@H](N=[N+]=[N-])[C@@H](CO)O2)c(=O)[nH]c1=O [ZIDOVUDINE]	–	–	–	–	–	–	–	–	–	–	–	12.7	1	5.1	4.9	Ratio EC50 [15]: 0.1; Ratio EC50 [16]: 0.4; Ratio EC50 [17]: 0.4
Cc1cc(/C=C/C#N)cc(C)c1Oc1nc(NC2CCN(Cc3ccc(C(N)=O)cc3)CC2)nc2sccc12	66.9	5.92	3540	597	53	6.11	4.99	12.8	27.1	9.24	15.1	–	–	–	–	–
Cc1cc(C#N)cc(C)c1Oc1nc(NC2CCN(Cc3ccc(S(N)(=O)=O)cc3)CC2)nc2ccsc12	–	–	–	–	–	–	–	–	–	–	–	1.1	> 36400	> 36400	> 36400	IC50 [18]: 76 nM; IC50 [19]: 92 nM; IC50 [20]: 162 nM; IC50 [21]: 126 nM; IC50 [22]: 215 nM; IC50 [23]: 200 nM; IC50 [24]: 71 nM
Cc1ccnc2c1NC(=O)c1cccnc1N2C1CC1 [NEVIRAPINE]	–	–	–	–	–	–	–	–	–	–	–	87.9	3760	> 9510	> 9510	Ratio EC50 [15]: 43; Ratio EC50 [16]: >108; Ratio EC50 [17]: >108
Cc1cc(/C=C/C#N)cc(C)c1Oc1nc(NC2CCN(Cc3ccc(C#N)cc3)CC2)nc2sccc12	138	12.4	7740	625	56	21.3	17.3	32.8	117	36.3	32.6	–	–	–	–	–
Cc1cc(/C=C/C#N)cc(C)c1Oc1nc(NC2CCN(Cc3ccc(S(N)(=O)=O)cc3)CC2)nc2ccsc12	–	–	–	–	–	–	–	–	–	–	–	–	> 5530	860	1220	IC50 [18]: 101 nM; IC50 [19]: 99 nM; IC50 [20]: 191 nM; IC50 [21]: 149 nM; IC50 [22]: 301 nM; IC50 [23]: 350 nM; IC50 [24]: 107 nM
CCOC(=O)c1ccc(CN2CCC(Nc3nc(Oc4c(C)cc(/C=C/C#N)cc4C)c4ccsc4n3)CC2)cc1	153	10.6	111000	10500	728	19.4	12	30.9	120	33.1	32.1	–	–	–	–	–
C[C@H](Cn1cnc2c(N)ncnc21)OCP(=O)(O)O [TENOFOVIR ANHYDROUS]	–	–	–	–	–	–	–	–	–	–	–	4140	2170	3760	3310	Ratio EC50 [15]: 0.5; Ratio EC50 [16]: 0.9; Ratio EC50 [17]: 0.8
Cc1cc(/C=C/C#N)cc(C)c1Nc1ccnc(Nc2ccc(C#N)cc2)n1 [RILPIVIRINE]	–	–	–	–	–	–	–	–	–	–	–	–	> 3870	90	60	solubility [25]: < 1 µg/mL; solubility [26]: < 1 µg/mL; solubility [27]: 103 µg/mL (≈ 281 µM)
Cc1cc(/C=C/C#N)cc(C)c1Oc1nc(NC2CCN(Cc3ccc(F)cc3)CC2)nc2sccc12	150	19.7	5840	279	39	30.4	22.6	36.3	152	123	127	–	–	–	–	–
Cc1cc(C#N)cc(C)c1Oc1nc(Nc2ccc(C#N)cc2)nc(N)c1Br [ETRAVIRINE]	–	–	–	–	–	5.38	2.35	15.7	20.5	–	–	–	1240	530	370	solubility [28]: < 1 µg/mL; solubility [25]: < 1 µg/mL; solubility [26]: < 1 µg/mL; solubility [27]: 127 µg/mL (≈ 292 µM)
Cc1cc(/C=C/C#N)cc(C)c1Oc1nc(NC2CCN(Cc3ccc(S(N)(=O)=O)cc3)CC2)nc2sccc12	6.45	3.24	–	–	–	2.05	2.34	6.57	7.59	6.7	4.81	4.1	3600	1780	870	IC50 [18]: 114 nM; IC50 [20]: 222 nM; IC50 [21]: 141 nM; IC50 [22]: 452 nM; IC50 [23]: 374 nM; IC50 [24]: 120 nM; Activity [29]: Non-Toxic; Activity [30]: Non-Toxic; Activity [31]: Non-Toxic; Activity [32]: Non-Toxic
